# Test results from patent US20160311788A1, “Antifouling Compounds And Use Thereof” (National University of Singapore, priority 2008, published 2016).
# Experiments:
# [1] = tested on: marine bacteria strain S4; test: disc inhibition assay, strain S4; assay type: cell-based, Bacillus algicola; conditions: Guptibacillus algicola, S4, 24 h; for zone of inhibition at 5 µg/disc: strain 4, 5 ug
# Outline: (§1)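 Zone-of-inhibition diameters (caliper, n=2 averaged) were recorded after overnight dark incubation at 35° C. Test discs of 6 mm bore 50 μg compound delivered in DMSO, placed on lawns of the marine strain grown in marine broth and spread on Marine Agar; solvent discs served as controls.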
# [2] = tested on: Escherichia coli (Strain DH5a); test: disc inhibition assay, REF 2; assay type: cell-based
# Experimental: (§2) 13 strains of marine bacteria were isolated from fouling communities located in the coastal waters around Singapore. These were characterized in earlier studies and reported in Teo et al. (U.S. patent application Ser. No. 11/265,833) and Choong et al (in prep). In addition, four reference bacterial strains were added tested: Escherichia coli (Strain K12, ATCC 15222), E. coli (strain DH5a), Pseudomonas aeruginosa (strain LMG 12228; ATCC 15692) and P. putida (strain KT2440; ATCC 47054). All the bacteria were also tested against five antibiotics: ampicillin (AMP), tetracycline (TETR), erythromycin (ERY), chloramphenicol (CHL) and streptomycin (STREP).
# (§3) Disks comprising the compounds to be tested were prepared as follows. The antibacterial assay, the pure compounds were made up to a concentration of 2 mgml^−1 in DMSO. 25 μl of the stock was pipetted onto each 6 mm sterile disc (Macherey-Nagel #484000) to obtain 50 μg of compound per disc. Equivalent volume of DMSO was used inoculated for the control.
# (§4) For all disk inhibition assays, bacterial cultures were grown in marine broth (Pronadisa #1217.00). Sterile swabs dipped into the cultures were used to inoculate Marine Agar plates with a bacterial lawn by smearing the culture over the surface. After inoculating the plates, discs with antibiotics, pharmaceuticals or control blanks were placed on each plate. Each concentration of antibiotic or pharmaceutical was tested with two replicates. After the disks were placed on the agar surface, plates were incubated overnight in the dark at 35° C. After incubation, plates were examined for zones of inhibition or clearing around control and treated disks. The diameter of any zone of clearing or inhibition was measured using Vernier calipers. There were two replicates per treatment, and the average was taken. There was no zone of inhibition around the control blanks in all the assays.
# [3] = tested on: marine bacteria strain S9; test: disc inhibition assay, strain S9; assay type: cell-based, Bacillus algicola; conditions: Guptibacillus algicola, S9, 24 h; for zone of inhibition at 5 µg/disc: strain 9, 5 ug
# Outline: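 50 μg compound/6 mm disc (from 2 mg/ml DMSO stock); DMSO blank disc control. Lawn swabbed on Marine Agar from marine broth culture. Overnight, 35° C, dark. Readout: inhibition zone diameter (calipers), mean of 2 replicates.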
# [4] = tested on: marine bacteria strain S18; test: disc inhibition assay, strain S18; assay type: cell-based, Microbacterium esteraromaticum
# [5] = tested on: marine bacteria strain S3; test: disc inhibition assay, strain S3; assay type: cell-based, Erythrobacter aquimaris
# Outline: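 Disc inhibition assay against a marine bacterial strain isolated from fouling communities in Singapore coastal waters. The strain was grown in marine broth and swabbed over Marine Agar plates as a lawn. 6 mm sterile discs loaded with compound in DMSO, or DMSO controls, were placed on the plates and incubated overnight in the dark at 35° C.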
# [6] = tested on: Pseudomonas putida (Strain KT2440; BCRC 10459); test: disc inhibition assay, REF 4; assay type: cell-based
# Experimental: as §2, §3, §4
# [7] = tested on: Pseudomonas aeruginosa (strain LMG 12228; ATCC 15692); test: disc inhibition assay, REF 3; assay type: cell-based
# Experimental: as §2, §3, §4
# [8] = tested on: marine bacteria strain S10; test: disc inhibition assay, strain S10; assay type: cell-based, Halobacillus trueperi; conditions: Halobacillus trueperi, S10, 24 h; for zone of inhibition at 5 µg/disc: strain 10, 5 ug
# Outline: as §1
# [9] = tested on: marine bacteria strain S28; test: disc inhibition assay, strain S28; assay type: cell-based, Arthrobacter protophormial
# Outline: as §1
# [10] = tested on: marine bacteria strain S30; test: disc inhibition assay, strain S30; assay type: cell-based, Bacillus borophilicus; conditions: Bacillus, S30, 24 h; for zone of inhibition at 5 µg/disc: strain 30, 5 ug
# Outline: as §1
# [11] = tested on: marine bacteria strain S16; test: disc inhibition assay, strain S16; assay type: cell-based, Pseudoalteromonas piscicida
# Outline: as §1
# [12] = tested on: Escherichia coli (Strain K12; ATCC 15222); test: disc inhibition assay, REF 1; assay type: cell-based
# Experimental: as §2, §3, §4
# [13] = tested on: marine bacteria strain S29; test: disc inhibition assay, strain S29; assay type: cell-based, Bacillus hwajinpoensis; conditions: Guptibacillus hwajinpoensis, S29, 24 h; for zone of inhibition at 5 µg/disc: strain 29, 5 ug
# Outline: as §1
# [14] = tested on: marine bacteria strain S1; test: disc inhibition assay, strain S1; assay type: cell-based, Rhodovulum iodosum
# Outline: as §1
# [15] = tested on: marine bacteria strain S17; test: disc inhibition assay, strain S17; assay type: cell-based, Gordonia terrae
# Outline: as §1
# [16] = tested on: marine bacteria strain S14; test: disc inhibition assay, strain S14; assay type: cell-based, Vibrio probioticus; conditions: for zone of inhibition: strain 14, 5 ug
# [17] = tested on: marine bacteria strain S27; test: disc inhibition assay, strain S27; assay type: cell-based, Tenacibaculum lutimaris
# Outline: as §1
smiles,measurement,setting,value
"CC[C@H]1OC(=O)[C@H](C)[C@@H](O[C@H]2C[C@@](C)(OC)[C@@H](O)[C@H](C)O2)[C@H](C)[C@@H](O[C@@H]2O[C@H](C)C[C@H](N(C)C)[C@H]2O)[C@](C)(O)C[C@@H](C)C(=O)[C@H](C)[C@@H](O)[C@]1(C)O [ERY, Erythromycin, reference compound]",zone of inhibition at 5 µg/disc,[1],> 10 mm
same,zone of inhibition at 15 µg/disc,"[1]; strain 4, 15 ug",> 10 mm
same,zone of inhibition,"[2]; REF 2, 5 ug",−
same,zone of inhibition,"[2]; REF 2, 15 ug",+ (2-5 mm zone of inhibition around each disk was observed.)
same,zone of inhibition at 5 µg/disc,[3],> 10 mm
same,zone of inhibition at 15 µg/disc,"[3]; strain 9, 15 ug",> 10 mm
same,zone of inhibition at 5 µg/disc,"[4]; Microbacterium esteraromaticum, S18, 24 h, strain 18, 5 ug",2 to 5 mm
same,zone of inhibition at 15 µg/disc,"[4]; Microbacterium esteraromaticum, S18, 24 h, strain 18, 15 ug",5 to 10 mm
same,zone of inhibition at 5 µg/disc,"[5]; Qipengyuania aquimaris, S3, 24 h, strain 3, 5 ug",5 to 10 mm
same,zone of inhibition at 15 µg/disc,"[5]; Qipengyuania aquimaris, S3, 24 h, strain 3, 15 ug",5 to 10 mm
same,zone of inhibition,"[6]; REF 4, 5 ug",+ (2-5 mm zone of inhibition around each disk was observed.)
same,zone of inhibition,"[6]; REF 4, 15 ug",+ (2-5 mm zone of inhibition around each disk was observed.)
same,zone of inhibition,"[7]; REF 3, 5 ug",+ (2-5 mm zone of inhibition around each disk was observed.)
same,zone of inhibition,"[7]; REF 3, 15 ug",+ (2-5 mm zone of inhibition around each disk was observed.)
same,zone of inhibition at 5 µg/disc,[8],5 to 10 mm
same,zone of inhibition at 15 µg/disc,"[8]; strain 10, 15 ug",> 10 mm
same,zone of inhibition at 5 µg/disc,"[9]; Arthrobacter, S28, 24 h, strain 28, 5 ug",> 10 mm
same,zone of inhibition at 15 µg/disc,"[9]; Arthrobacter, S28, 24 h, strain 28, 15 ug",> 10 mm
same,zone of inhibition at 5 µg/disc,[10],5 to 10 mm
same,zone of inhibition at 15 µg/disc,"[10]; strain 30, 15 ug",5 to 10 mm
same,zone of inhibition at 5 µg/disc,"[11]; Pseudoalteromonas piscicida, S16, 24 h, strain 16, 5 ug",2 to 5 mm
same,zone of inhibition at 15 µg/disc,"[11]; Pseudoalteromonas piscicida, S16, 24 h, strain 16, 15 ug",2 to 5 mm
same,zone of inhibition,"[12]; REF 1, 5 ug",−
same,zone of inhibition,"[12]; REF 1, 15 ug",+ (2-5 mm zone of inhibition around each disk was observed.)
same,zone of inhibition at 5 µg/disc,[13],> 10 mm
same,zone of inhibition at 15 µg/disc,"[13]; strain 29, 15 ug",> 10 mm
same,zone of inhibition,"[14]; strain 1, 5 ug",−
same,zone of inhibition,"[14]; strain 1, 15 ug",−
same,zone of inhibition at 5 µg/disc,"[15]; Gordonia terrae, S17, 24 h, strain 17, 5 ug",> 10 mm
same,zone of inhibition at 15 µg/disc,"[15]; Gordonia terrae, S17, 24 h, strain 17, 15 ug",> 10 mm
same,zone of inhibition at 15 µg/disc,"[16]; Vibrio, S14, 24 h",2 to 5 mm
same,zone of inhibition,[16],−
same,zone of inhibition at 5 µg/disc,"[17]; Tenacibaculum lutimaris, S27, 24 h, strain 27, 5 ug",5 to 10 mm
same,zone of inhibition at 15 µg/disc,"[17]; Tenacibaculum lutimaris, S27, 24 h, strain 27, 15 ug",5 to 10 mm
"CN(C)[C@@H]1C(O)=C(C(N)=O)C(=O)[C@@]2(O)C(O)=C3C(=O)c4c(O)cccc4[C@@](C)(O)[C@H]3C[C@@H]12 [TETR, Tetracycline, reference compound]",zone of inhibition at 5 µg/disc,[1],2 to 5 mm
same,zone of inhibition at 30 µg/disc,"[1]; strain 4, 30 ug",5 to 10 mm
same,zone of inhibition,"[2]; REF 2, 5 ug",+ (2-5 mm zone of inhibition around each disk was observed.)
same,zone of inhibition,"[2]; REF 2, 30 ug",++ (5-10 mm zone was observed.)
same,zone of inhibition at 5 µg/disc,[3],2 to 5 mm
same,zone of inhibition at 30 µg/disc,"[3]; strain 9, 30 ug",5 to 10 mm
same,zone of inhibition at 30 µg/disc,"[4]; Microbacterium esteraromaticum, S18, 24 h, strain 18, 30 ug",2 to 5 mm
same,zone of inhibition,"[4]; strain 18, 5 ug",−
same,zone of inhibition,"[5]; strain 3, 5 ug",−
same,zone of inhibition,"[5]; strain 3, 30 ug",−
same,zone of inhibition,"[6]; REF 4, 5 ug",++ (5-10 mm zone was observed.)
same,zone of inhibition,"[6]; REF 4, 30 ug",++ (5-10 mm zone was observed.)
same,zone of inhibition,"[7]; REF 3, 5 ug",+ (2-5 mm zone of inhibition around each disk was observed.)
same,zone of inhibition,"[7]; REF 3, 30 ug",++ (5-10 mm zone was observed.)
same,zone of inhibition at 5 µg/disc,[8],2 to 5 mm
same,zone of inhibition at 30 µg/disc,"[8]; strain 10, 30 ug",2 to 5 mm
same,zone of inhibition at 30 µg/disc,"[9]; Arthrobacter, S28, 24 h, strain 28, 30 ug",2 to 5 mm
same,zone of inhibition,"[9]; strain 28, 5 ug",−
same,zone of inhibition at 5 µg/disc,[10],2 to 5 mm
same,zone of inhibition at 30 µg/disc,"[10]; strain 30, 30 ug",2 to 5 mm
same,zone of inhibition,"[11]; strain 16, 5 ug",−
same,zone of inhibition,"[11]; strain 16, 30 ug",−
same,zone of inhibition,"[12]; REF 1, 5 ug",+ (2-5 mm zone of inhibition around each disk was observed.)
same,zone of inhibition,"[12]; REF 1, 30 ug",++ (5-10 mm zone was observed.)
same,zone of inhibition at 5 µg/disc,[13],2 to 5 mm
same,zone of inhibition at 30 µg/disc,"[13]; strain 29, 30 ug",5 to 10 mm
same,zone of inhibition,"[14]; strain 1, 5 ug",−
same,zone of inhibition,"[14]; strain 1, 30 ug",−
same,zone of inhibition,"[15]; strain 17, 5 ug",−
same,zone of inhibition,"[15]; strain 17, 30 ug",−
same,zone of inhibition at 30 µg/disc,"[16]; Vibrio, S14, 24 h",2 to 5 mm
same,zone of inhibition,[16],−
same,zone of inhibition at 30 µg/disc,"[17]; Tenacibaculum lutimaris, S27, 24 h, strain 27, 30 ug",2 to 5 mm
same,zone of inhibition,"[17]; strain 27, 5 ug",−
